pIC50: −log10 of the molar value. Bounds are passed on as bounds.

One experiment has as its target T1, human Syk (GST-Syk) (Homo sapiens, UniProt P43405).
T1 construct: A cDNA fragment encoding human Syk openreading frame was cloned; made in house; host or cells: Sf21 insect cells (baculovirus, transfer vector pAcG2T)
Briefly: Syk tyrosine kinase inhibitory assay. The experiment is classed as biochemical. As to conditions: Table 11; read-out: Activity grade. Put shortly:
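Readout: streptavidin-captured biotin-AL peptide probed with europium-4G10 anti-phosphotyrosine, time-resolved fluorescence (ex 340/em 615 nm). Reaction ran 1 h at room temperature with 30 μM ATP, 3 μM peptide, 0.65 nM Sf21-expressed GST-Syk and 0.25% DMSO, pH 8.0.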
With `COc1ccc(-c2cc3nccn3c(Nc3cccc(Cl)c3)n2)cc1OC` [Example 12-11], the pIC50 is greater than 6.30.

Turning to `COc1ccc(-c2cc3nccn3c(NC3=NNCS3)n2)cc1OC` [Example 12-31], the pIC50 was 5.70 to 6.30.

Take `COc1ccc(-c2cc3nccn3c(Nc3ccc(Br)cn3)n2)cc1OC` [Example 12-9]: the pIC50 is greater than 6.30.

Take `COc1cc(-c2cc3nccn3c(Nc3ccc(C(F)(F)F)cc3)n2)ccc1N1CCOCC1` [Example 12-49]: the pIC50 is greater than 6.30.

With `COc1cc(-c2cc3nccn3c(Nc3ccccc3)n2)ccc1OC(C)=O` [Example 12-33], the pIC50 was greater than 6.30.

Consider `c1ccc(Nc2nc(-c3ccc4c(c3)OCO4)cc3nccn23)cc1` [Example 12-22], for which the pIC50 was 5.70 to 6.30.

Regarding `COCCN(C)c1ccc(-c2cc3nccn3c(Nc3ccccc3S(C)(=O)=O)n2)cc1OC` [Example 12-44], the pIC50 is greater than 6.30.

The same experiment, now with this note: Table 13; read-out: Activity grade.
For `COc1ccc(-c2cc3nccn3c(SCc3cccc(C(F)(F)F)c3)n2)cc1OC` [Example 14-13], the pIC50 is 5.00 to 5.70.

Consider `COc1ccc(-c2cc3ncnn3c(Sc3ccc(/C=C/C(=O)O)cc3)n2)cc1OC` [Example 14-10], for which the pIC50 is greater than 6.30.

With `COc1ccc(-c2cc3nccn3c(SCc3ccc(Cl)cc3)n2)cc1OC` [Example 14-15], the pIC50 is 5.70 to 6.30.

In the case of `COc1ccc(-c2cc3nccn3c(SCCC(C)C)n2)cc1OC` [Example 14-28], the pIC50 was 5.70 to 6.30.

Turning to `Oc1ccc(Sc2nc(-c3ccccc3)cc3ncnn23)cc1` [Example 14-8], the pIC50 is 5.00 to 5.70.

The same experiment, now with this note: Table 16; read-out: Activity grade.
With `CCSc1nc(-c2ccc(NCCCn3ccnc3)c(OC)c2)cc2nccn12` [Example 17-11], the pIC50 is greater than 6.30.

Regarding `CCSc1nc(-c2ccc(NCCN(C)C)c(OC)c2)cc2nccn12` [Example 17-7], the pIC50 was 5.70 to 6.30.

The same experiment, now with this note: Table 17; IC50 classes; read-out: Activity grade.
In the case of `COc1ccc(-c2cc3nccn3c(Nc3ccc(N)cc3C(N)=O)n2)cc1OC` [Example 33], the pIC50 was greater than 6.30.

The same experiment, now with this note: in vitro; compounds as yielded by solid phase synthesis, purity about 40 to 90%.
Take `COc1ccc(-c2cc3nccn3c(N3CCN(c4ccc(Cl)c(Cl)c4)CC3)n2)cc1OC` [Example 9-42]: the “Activity grade (IC50 class)” value is on record as “C-D”.

Take `COc1ccc(-c2cc3nccn3c(N3CCC(C(=O)c4ccc(F)cc4)CC3)n2)cc1OC` [Example 9-61]: the “Activity grade (IC50 class)” value is listed as “C-D”.

For `CCOC(=O)CCNS(=O)(=O)c1ccc(-c2cc3nccn3c(SCC)n2)cc1OC` [Example 2-11], the “Activity grade (IC50 class)” value is listed as “C-D”.

Still in this experiment, the particulars now being: in vitro; compounds as yielded by solid phase synthesis, purity about 40 to 90%; read-out: Activity grade (IC50 class).
Regarding `COc1ccc(-c2cc3nccn3c(N3CCN(C)CC3)n2)cc1OC` [Example 9-37], the pIC50 was 5.70 to 6.30.

On to `COc1ccc(-c2cc3nccn3c(Nc3ccc(N)cc3)n2)cc1OC` [Example 11-62], for which the pIC50 is greater than 6.30.

Take `COc1ccc(-c2cc3nccn3c(N(C)c3ccccc3)n2)cc1OC` [Example 11-18]: the pIC50 was greater than 6.30.

For `COc1ccc(-c2cc3nccn3c(Nc3ccc(Br)cc3C(N)=O)n2)cc1OC` [Example 11-97], the pIC50 is greater than 6.30.

For the molecule `COc1ccc(-c2cc3nccn3c(Sc3nc[nH]n3)n2)cc1OC` [Example 13-29], the pIC50 was greater than 6.30.

As to `COc1ccc(-c2cc3nccn3c(Nc3ccccc3F)n2)cc1OC` [Example 11-53], the pIC50 was greater than 6.30.

`COc1ccc(-c2cc3nccn3c(Nc3ccccc3C(=O)O)n2)cc1OC` [Example 11-77]: the pIC50 was greater than 6.30.

For `COc1ccc(-c2cc3nccn3c(Sc3ncccn3)n2)cc1OC` [Example 13-13], the pIC50 was greater than 6.30.

Turning to `COc1ccc(-c2cc3nccn3c(Nc3ccc(C(=O)O)cc3)n2)cc1OC` [Example 11-28], the pIC50 was greater than 6.30.

Regarding `COc1ccc(-c2cc3nccn3c(N3CCN(c4ccc([N+](=O)[O-])cc4)CC3)n2)cc1OC` [Example 9-35], the pIC50 was 5.00 to 5.70.

Take `COc1ccc(-c2cc3ncnn3c(Nc3cccc(N)n3)n2)cc1OC` [Example 9-16]: the pIC50 is greater than 6.30.

For the molecule `COc1ccc(-c2cc3nccn3c(Nc3ccc([N+](=O)[O-])cc3)n2)cc1OC` [Example 11-33], the pIC50 was greater than 6.30.

Regarding `COc1ccc(-c2cc3nccn3c(Nc3ccc(I)cc3C(N)=O)n2)cc1OC` [Example 11-78], the pIC50 is greater than 6.30.

For the molecule `COc1ccc(-c2cc3nccn3c(N3CCN(c4ccccn4)CC3)n2)cc1OC` [Example 9-38], the pIC50 is 5.70 to 6.30.

As for `COc1ccc(-c2cc3nccn3c(Sc3ccc(CCC(=O)O)cc3)n2)cc1OC(C)=O` [Example 13-25], the pIC50 was greater than 6.30.

In the case of `CCSc1nc(-c2ccc(OC(C)=O)c(OC)c2)cc2nccn12` [Example 3-7], the pIC50 is greater than 6.30.

`COc1ccc(-c2cc3nccn3c(Nc3cccc(OC(F)(F)F)c3)n2)cc1OC` [Example 11-69]: the pIC50 is greater than 6.30.

In the case of `COc1ccc(-c2cc3nccn3c(Sc3ccc(CCC(=O)O)cc3OC)n2)cc1OC` [Example 9-94], the pIC50 was greater than 6.30.

Regarding `COc1ccc(-c2cc3nccn3c(N3CCC(C(N)=O)CC3)n2)cc1OC` [Example 9-57], the pIC50 was greater than 6.30.

For the molecule `COc1ccc(-c2cc3nccn3c(Nc3ccccc3S(=O)(=O)N(C)C)n2)cc1OC` [Example 11-123], the pIC50 is greater than 6.30.

Take `Cc1c(N)cccc1Oc1nc(-c2ccc(O)c(O)c2)cc2ncnn12` [Example 14]: the pIC50 was greater than 6.30.

On to `CCSc1nc(-c2ccc(O)c(O)c2)cc2nccn12` [material for Example 6, 4-(5-Ethylsulfanyl-imidazo[1,2-c]pyrimidin-7-yl)-benzene-1,2-diol], for which the pIC50 was 5.00 to 5.70.

With `COc1ccc(-c2cc3nccn3c(Nc3ccc(F)cc3)n2)cc1OC` [Example 11-60], the pIC50 was greater than 6.30.

Values taken from patent US6911443B2 (Bayer Aktiengesellschaft, priority 2000, dated 2005).
